Values of other authors in US6420378B1, “Inhibition of abnormal cell proliferation with camptothecin and combinations including the same” (priority 1999, dated 2002).

How the values were obtained:
[1] = tested on: human colon cancer xenografts; conditions: mouse, in vivo
[2] = clinical trials, administered intravenously
[3] = tested on: nontumorigenic human cells; conditions: in vitro
tumorigenic human cells = conditions: in vitro

CC[C@@]1(O)C(=O)OCc2c1cc1n(c2=O)Cc2cc3c(N)cccc3nc2-1 [9AC, 9-Amino-20(S)-Camptothecin]
anticancer activity against human colon cancer xenografts [1]: high anticancer activity

CC[C@@]1(O)C(=O)OCc2c1cc1n(c2=O)Cc2cc3c([N+](=O)[O-])cccc3nc2-1 [9NC, 9-nitrocamptothecin]
growth of human tumor xenografts (human tumor xenografts; immunodeficient nude mice): inhibited the growth | activity against human tumor xenograft models (human tumor xenografts; mouse, in vivo): high activity | regression of human tumors established as xenografts (human tumor xenografts; nude mice): induced regression

CC[C@@]1(O)C(=O)OCc2c1cc1n(c2=O)Cc2cc3cc4c(cc3nc2-1)OCO4 [10,11 MD, 10,11-Methylendioxy-20(S)-Camptothecin]
anticancer activity against human colon cancer xenografts [1]: high anticancer activity

CC[C@@](O)(C(=O)[O-])c1cc2n(c(=O)c1CO)Cc1cc3ccccc3nc1-2.[Na+] [20(S)-camptothecin Na+]
potency [2]: low potency | toxicity [2]: high toxicity

CC[C@@]1(O)C(=O)OCc2c1cc1n(c2=O)Cc2cc3ccccc3nc2-1 [20(S)-camptothecin]
effect on nontumorigenic cells [3]: cytostatic | effect on tumorigenic cells (tumorigenic human cells): cytotoxic
